Source: patent US11535623B2, “Cryptate compounds” (Australian Nuclear Science and Technology Organisation, priority 2011, dated 2022)

What was measured:
[1] = Clearance from the kidneys after administration to mice; type: in vivo, BALB/c mice; conditions: administered to balb/s mice; Cu complex
From the text: For example, the functional group of R^5 may be hydrophobic or may be hydrophilic. Having a hydrophobic entity will encourage clearance of a compound of the present invention that is complexed with a metal ion or metal ion radionuclide through the liver, while a hydrophilic entity will predominantly clear through the kidney.

[2] = 64Cu radiolabelling at room temperature; kinetically inert complexes; cited from earlier work

Which “clearance / retention in the kidneys” value [1] does the source give for NC12CNCCNCC(N)(CNCCNC1)CNCCNC2.[Cu+2] [Cu-diamsar] here?
Its value is “rapidly cleared from the kidneys”.

Which “clearance / retention in the kidneys” value [1] does the source give for C1CNCC2CNCCNCC(CN1)CNCCNC2.[Cu+2] [Cu-sar] here?
Its value is “retained for a relatively longer period of time in the kidneys”.

Which “stability of 64Cu complex to excess EDTA challenge” value [2] does the source give for Nc1ccc(CNC23CNCCNCC(N)(CNCCNC2)CNCCNC3)cc1 [Sarar, 1-N-(4-aminobenzyl)-3,6,10,13,16,19-hexaazabicyclo[6.6.6]eicosane-1,8-diamine] here?
Its value is “stable to excess EDTA challenge”.
